Results on 13 compounds are retold here after ChEMBL document CHEMBL1201862, “PubChem BioAssay data set” (2004).

Some test systems named below: RPMI-8226; UO-31; K562; MDA-N; SN12C; SF-539; A498; NCI-H460; HCT-116; UACC-62; SNB-19; MDA-MB-435; Malme-3M; NCI/ADR-RES; EKVX; OVCAR-3; HCC 2998; SR; U-251; BT-549.
What all share (experiment): NCI anticancer screen, dose series, 48 h

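The compound was tested at five concentrations on cells cultured in 96-well plates, with a 48-hour exposure period. Here, GI50 denotes the concentration required for 50% inhibition of growth.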 The source made the active and inactive calls. Rule as the data show it: active = GI50 up to about 1.1 µM and inactive = higher.

On to `COC1(OC)c2no[n+]([O-])c2CCC1O` (stereo not drawn), for which the GI50 with RPMI-8226, with UO-31, in the assay with K562, with MDA-N, in the assay on SN12C and in the assay with SF-539 was > 100 µM (inactive) throughout. Also, the GI50 in the assay on A498, in the assay with NCI-H460, in the assay on HCT-116, in the assay on UACC-62, with SNB-19 and in the assay on MDA-MB-435 was > 100 µM (inactive) throughout. Besides, the GI50 in the assay on Malme-3M, in the assay on NCI/ADR-RES, in the assay with EKVX, in the assay with OVCAR-3, in the assay on HCC 2998 and with SR was > 100 µM (inactive) in each case.
Turning to `Nc1nc2ccc3ccccc3c2[nH]1`, the GI50 in the assay with RPMI-8226 is > 10 µM (inactive); in the assay with UO-31, 5.66 µM (inactive); in the assay with K562, > 10 µM (inactive); with MDA-N, > 10 µM (inactive); with SN12C, > 10 µM (inactive); in the assay on SF-539, > 10 µM (inactive). The GI50 with A498, with NCI-H460, in the assay on HCT-116, in the assay with UACC-62, in the assay on SNB-19 and in the assay with MDA-MB-435 was > 10 µM (inactive) in each case. Moreover, the GI50 in the assay on Malme-3M, in the assay with NCI/ADR-RES, with EKVX, in the assay with OVCAR-3, with U-251 and in the assay with HCC 2998 was > 10 µM (inactive) in each case. Besides, the GI50 in the assay on SR was > 10 µM (inactive).
As for `CCN(CC)/[N+]([O-])=N/O`, the GI50 in the assay on UO-31, with K562, in the assay on SN12C, in the assay on SF-539, with A498 and with NCI-H460 was > 100 µM (inactive) throughout. In addition, the GI50 with HCT-116, in the assay with UACC-62, in the assay with SNB-19, in the assay with EKVX, with OVCAR-3 and in the assay on HCC 2998 was > 100 µM (inactive) each time. The GI50 in the assay with SR is > 100 µM (inactive).
`CN(C)CCOc1cc2c(c3ccccc13)-c1ccccc1C2O` (stereo not drawn): the GI50 with RPMI-8226 was 12.6 µM (inactive); in the assay on UO-31, 12.5 µM (inactive); with K562 it was 18.6 µM (inactive); with SN12C, 13.4 µM (inactive); with SF-539, 14.3 µM (inactive); with A498 it was 15 µM (inactive). Further, the GI50 in the assay with NCI-H460 is 7.21 µM (inactive); in the assay on HCT-116, 13.2 µM (inactive); with UACC-62, 17.2 µM (inactive); in the assay with SNB-19, 8.28 µM (inactive); in the assay with Malme-3M, 18.2 µM (inactive); in the assay with NCI/ADR-RES, 3.49 µM (inactive). The GI50 in the assay with EKVX was 14.8 µM (inactive); in the assay on OVCAR-3, 15.6 µM (inactive); with U-251, 15.5 µM (inactive); in the assay with HCC 2998, 14.4 µM (inactive).
As for `COc1ccc(/N=C\c2ccc(N(CCC#N)S(=O)(=O)c3ccccc3)cc2C)cc1`, the GI50 in the assay with RPMI-8226 was > 100 µM (inactive); with UO-31, 23.3 µM (inactive); in the assay on K562, 11.1 µM (inactive); with SN12C, > 100 µM (inactive); in the assay on SF-539, 44.2 µM (inactive); with NCI-H460, 34.8 µM (inactive). Besides, the GI50 in the assay with HCT-116 was 87.1 µM (inactive); with UACC-62, 8.99 µM (inactive); in the assay with SNB-19, > 100 µM (inactive); with Malme-3M it was 25.6 µM (inactive); in the assay with EKVX, > 100 µM (inactive); in the assay with OVCAR-3, 53.7 µM (inactive). Besides, the GI50 is > 100 µM (inactive) in the assay on U-251, 32 µM (inactive) in the assay with HCC 2998 and 7.96 µM (inactive) with SR.
For the compound `O=C(NNC(=S)Nc1ccccc1)c1nsc2ccccc12`, the GI50 in the assay on RPMI-8226 is 16 µM (inactive); in the assay on UO-31, 25.5 µM (inactive); with K562 it was 35.7 µM (inactive); with SN12C, 31.5 µM (inactive); in the assay on SF-539, 31.3 µM (inactive); in the assay with NCI-H460 it was 21.5 µM (inactive). The GI50 in the assay on HCT-116 was 25.2 µM (inactive); in the assay with UACC-62, 26.2 µM (inactive); in the assay with SNB-19, 34.9 µM (inactive); in the assay with EKVX it was 25.2 µM (inactive); in the assay with OVCAR-3, 10.3 µM (inactive); in the assay on U-251, 27.1 µM (inactive). Besides, the GI50 is 55 µM (inactive) with HCC 2998 and 22 µM (inactive) in the assay on SR.
As to `CS(C)(=O)=Nn1c(=O)n2n(c1=O)C1c3ccccc3C2c2ccccc21`, the GI50 in the assay on RPMI-8226, in the assay on UO-31, in the assay with K562, in the assay with MDA-N, with SF-539 and with A498 was > 100 µM (inactive) each time. Further, the GI50 in the assay with NCI-H460, in the assay on UACC-62, in the assay with SNB-19, in the assay on MDA-MB-435, with Malme-3M and in the assay with NCI/ADR-RES was > 100 µM (inactive) each time. Also, the GI50 in the assay with EKVX, in the assay on OVCAR-3, with U-251 and with SR was > 100 µM (inactive) throughout.
On to `COC(=O)CN(C)P(=O)(N1CC1)N1CC1`, for which the GI50 was > 100 µM (inactive) in the assay with RPMI-8226; > 100 µM (inactive) in the assay on UO-31; > 100 µM (inactive) in the assay on K562; 69.5 µM (inactive) in the assay with SN12C; > 100 µM (inactive) in the assay on SF-539; 90.2 µM (inactive) with UACC-62. Moreover, the GI50 in the assay on SNB-19, in the assay on Malme-3M, in the assay on EKVX, with U-251 and in the assay with HCC 2998 was > 100 µM (inactive) throughout.
As to `Oc1ccc(Cl)cc1C1=NC(/N=C\c2ccccc2)=NC(c2ccccc2)C1` (stereo not drawn), the GI50 with UO-31 was 10.5 µM (inactive); with K562 it was > 100 µM (inactive); in the assay with SN12C, 14.7 µM (inactive); with SF-539, 22.8 µM (inactive); in the assay with A498, 73.6 µM (inactive); with HCT-116, 5.94 µM (inactive). Further, the GI50 with UACC-62 was > 100 µM (inactive); with BT-549 it was > 100 µM (inactive); in the assay on MDA-MB-435, > 100 µM (inactive); with NCI/ADR-RES, 21.4 µM (inactive); in the assay on EKVX it was > 100 µM (inactive); with OVCAR-3, 11.4 µM (inactive). Besides, the GI50 with U-251 is 30.1 µM (inactive); with SR, 5.5 µM (inactive).
In the case of `O[C@H]1[C@H]2[C@H](O)CCCN2C[C@H]1O` [TRIDOLGOSIR], the GI50 with RPMI-8226, in the assay on UO-31, in the assay on SN12C, in the assay on SF-539, in the assay with A498 and in the assay on NCI-H460 was > 100 µM (inactive) in each case. Besides, the GI50 with HCT-116, in the assay with UACC-62, with SNB-19, in the assay with Malme-3M, in the assay with EKVX and with OVCAR-3 was > 100 µM (inactive) each time. The GI50 with U-251 and with HCC 2998 was > 100 µM (inactive) in each case.
Take `O=c1c(-c2ccccc2)c(SCCN2CCOCC2)n(-c2ccccc2)c(=S)n1-c1ccccc1`: the GI50 is > 100 µM (inactive) in the assay with RPMI-8226; > 100 µM (inactive) with K562; > 100 µM (inactive) with SF-539; > 100 µM (inactive) with A498; > 100 µM (inactive) in the assay on NCI-H460; 89.1 µM (inactive) with UACC-62. The GI50 in the assay with BT-549, with MDA-MB-435, in the assay on Malme-3M, in the assay on NCI/ADR-RES, in the assay with EKVX and in the assay with OVCAR-3 was > 100 µM (inactive) each time. Further, the GI50 in the assay with U-251, with HCC 2998 and in the assay on SR was > 100 µM (inactive) each time.
Consider `Cc1ccc(S(=O)(=O)NCCSS(=O)(=O)c2ccc(C)cc2)cc1`, for which the GI50 was 28 µM (inactive) with UO-31; 30.7 µM (inactive) with K562; 23.1 µM (inactive) with MDA-N; 29.7 µM (inactive) in the assay on SN12C; 11.3 µM (inactive) with A498; 35.4 µM (inactive) with NCI-H460. In addition, the GI50 with HCT-116 is 15.1 µM (inactive); in the assay with SNB-19, 72.9 µM (inactive); with MDA-MB-435, 22.3 µM (inactive); with NCI/ADR-RES, 25.8 µM (inactive); with U-251, 25.5 µM (inactive); with HCC 2998, 62.5 µM (inactive). Moreover, the GI50 in the assay on SR is 13.9 µM (inactive).
On to `CSC1SCC2C(=O)N(C)C(C(C)C)C(=O)OCC(NC(=O)c3cnc4ccccc4n3)C(=O)NC(C)C(=O)N(C)C1C(=O)N(C)C(C(C)C)C(=O)OCC(NC(=O)c1cnc3ccccc3n1)C(=O)NC(C)C(=O)N2C` (stereo not drawn), for which the GI50 was 0.0075 µM (active) with RPMI-8226; 0.0083 µM (active) in the assay on UO-31; 0.0075 µM (active) in the assay with SN12C; 0.0075 µM (active) in the assay on A498; 0.0075 µM (active) with NCI-H460; 0.00885 µM (active) in the assay with HCT-116. Moreover, the GI50 in the assay with BT-549 is 0.00158 µM (active); in the assay with SNB-19 it was 0.0075 µM (active); in the assay on MDA-MB-435, 0.00105 µM (active); in the assay on NCI/ADR-RES, 0.0454 µM (active); with EKVX, 0.0075 µM (active); in the assay on OVCAR-3, 0.0075 µM (active). Also, the values for the GI50 in the assay on U-251, in the assay with HCC 2998 and with SR were 0.0075 µM (active), 0.0075 µM (active) and 0.000171 µM (active), respectively.
